Values quoted from earlier work, collected in publication PMC9762682, “Tocotrienols: Exciting Biological and Pharmacological Properties of Tocotrienols and Naturally Occurring Compounds, Part II” (Annals of clinical case reports, 2022).
Where two headings read alike, the source gives them in different places. Marks after values point to notes of the source that are not given here.

Legend:
[1] = system: T-cells (Jurkat); set-up: method as in PMID 29606130; value at effective dose: unit not given here
[2] = system: TNF-α; conditions: LPS-induced macrophages of wild type (C57BL/6) control group
[3] = system: B-Lymphocyte cells; set-up: method as in PMID 29606130; value at effective dose: unit not given here;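 for IC50: anti-proliferation of cancer cells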
[4] = system: TNF-α; conditions: LPS-induced macrophages of PPAR-α knockout female mice
[5] = system: Prostate cancer cells; set-up: method as in PMID 29606130; value at effective dose: scale not given here; conditions: for effective dose / percentage of control at effective dose / value at effective dose: 48 h;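 for IC50: anti-proliferation of cancer cells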
[6] = system: Melanoma cells; set-up: method as in PMID 29606130
[7] = system: Hela cells; set-up: method as in PMID 29606130; value at effective dose: unit not given here; conditions: for effective dose / percentage of control at effective dose / value at effective dose: 48 h;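 for IC50: anti-proliferation of cancer cells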
[8] = system: Lung cancer cells; set-up: method as in PMID 29606130; value at effective dose: unit not given here
[9] = system: Liver cancer cells; set-up: method as in PMID 29606130; value at effective dose: unit not given here; conditions: for effective dose / percentage of control at effective dose / value at effective dose: 48 h
[10] = system: Pancreas cancer cells; set-up: method as in PMID 29606130; value at effective dose: unit not given here; conditions: for effective dose / percentage of control at effective dose / value at effective dose: 48 h
[11] = system: Breast cancer cells; set-up: method as in PMID 29606130; value at effective dose: unit not given here;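 for IC50: anti-proliferation of cancer cells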
[12] = set-up: method as in ref 16 = [16]; PMID 27493840; doi:10.4172/2155-9880.1000434; 16. Qureshi AA , Khan DA , Silswal N , Saleem S , Qureshi N . Evaluation of pharmacokinetics and bioavailability of higher doses of δ-tocotrienol in healthy fed humans . J Clin Exp Cardiol . 2016; 7
[13] = set-up: method as in ref 14 = [14]; PMID 27493840; doi:10.4172/2155-9880.1000434; 14. Qureshi AA , Khan DA , Saleem S , Silswal N , Trias AM , Tan B , Pharmacokinetics and bioavailability of Annatto δ-tocotrienol in healthy fed subjects . J Clin Exp Cardiol . 2015; 6 : 11 . 10.417; conditions: for Elimination of Half-life time (t1/2) / Elimination rate constant (ke) / Plasma Peak Concentration (Cmax) / Time to achieve plasma peak (Tmax): healthy fed subjects
[14] = system: α-Tocopherol Transfer Protein (α-TTP); set-up: method as in PMID 11271854, PMID 8632210
[15] = plasma tocol after single 125 mg δ-tocotrienol dose
[16] = plasma tocol after single 250 mg δ-tocotrienol dose
[17] = plasma tocol after single 500 mg δ-tocotrienol dose

**Q.** For `Cc1cc2nc3c(=O)[nH]c(=O)nc-3n(C[C@H](O)[C@H](O)[C@H](O)CO)c2cc1C` [(−) Riboflavin, Riboflavin], which effective dose [1] is on record?
**A.** 20 µM

**Q.** And the “percentage of control at effective dose” value [1]?
**A.** 32%

**Q.** And the “value at effective dose” value [1]?
**A.** 142.0 ± 4.4

**Q.** And the “effect on secretion of TNF-α” value [2]?
**A.** inhibition

**Q.** And the IC50 [3]?
**A.** 80 µM

**Q.** What about the effective dose [3] of the same molecule?
**A.** 20 µM

**Q.** And the “percentage of control at IC50 dose” value [3]?
**A.** 55%

**Q.** What about the “percentage of control at effective dose” value [3] of the same molecule?
**A.** 69%

**Q.** And the “value at effective dose” value [3]?
**A.** 19.3 ± 3.1

**Q.** And the “effect on secretion of TNF-α” value [4]?
**A.** activation

**Q.** And the IC50 [5]?
**A.** 80 µM

**Q.** What about the “percentage of control at IC50 dose” value [5] of the same molecule?
**A.** 55%

**Q.** And the effective dose [5]?
**A.** 40 µM

**Q.** And the “percentage of control at effective dose” value [5]?
**A.** 61%

**Q.** And the “value at effective dose” value [5]?
**A.** 20.0 ± 2.0

**Q.** What about the effective dose [6] of the same molecule?
**A.** 40 µM

**Q.** What about the “percentage of control at effective dose” value [6] of the same molecule?
**A.** 91%

**Q.** And the effective dose [7]?
**A.** 40 µM

**Q.** And the “percentage of control at effective dose” value [7]?
**A.** 64%

**Q.** And the “value at effective dose” value [7]?
**A.** 21.0 ± 1.0

**Q.** And the effective dose [8]?
**A.** 10 µM

**Q.** And the “percentage of control at IC50 dose” value [8]?
**A.** 28%

**Q.** What about the “percentage of control at effective dose” value [8] of the same molecule?
**A.** 23%

**Q.** And the “value at effective dose” value [8]?
**A.** 7.7 ± 2.1

**Q.** What about the effective dose [9] of the same molecule?
**A.** 80 µM

**Q.** And the “percentage of control at effective dose” value [9]?
**A.** 91%

**Q.** And the “value at effective dose” value [9]?
**A.** 74.0 ± 2.0

**Q.** What about the effective dose [10] of the same molecule?
**A.** 40 µM

**Q.** And the “percentage of control at effective dose” value [10]?
**A.** 67%

**Q.** And the “value at effective dose” value [10]?
**A.** 40.0 ± 2.0

**Q.** And the effective dose [11]?
**A.** 80 µM

**Q.** And the “percentage of control at effective dose” value [11]?
**A.** 61%

**Q.** What about the “value at effective dose” value [11] of the same molecule?
**A.** 12.7 ± 1.5

**Q.** Which IC50 [1] does the source give for `O=c1c(O)c(-c2ccc(O)c(O)c2)oc2cc(O)cc(O)c12` [Quercetin] here?
**A.** 10 µM

**Q.** What about the effective dose [1] of the same molecule?
**A.** 40 µM

**Q.** What about the “percentage of control at IC50 dose” value [1] of the same molecule?
**A.** 45%

**Q.** What about the “percentage of control at effective dose” value [1] of the same molecule?
**A.** 81%

**Q.** And the “value at effective dose” value [1]?
**A.** 409.3 ± 6.4

**Q.** What about the “effect on secretion of TNF-α” value [2] of the same molecule?
**A.** inhibition

**Q.** And the IC50 [3]?
**A.** 10 µM

**Q.** And the effective dose [3]?
**A.** 10 µM

**Q.** And the “percentage of control at IC50 dose” value [3]?
**A.** 29%

**Q.** And the “percentage of control at effective dose” value [3]?
**A.** 29%

**Q.** What about the “value at effective dose” value [3] of the same molecule?
**A.** 8.0 ± 3.0

**Q.** And the “effect on secretion of TNF-α” value [4]?
**A.** activation

**Q.** And the IC50 [5]?
**A.** 10 µM

**Q.** What about the “percentage of control at IC50 dose” value [5] of the same molecule?
**A.** 48%

**Q.** And the effective dose [5]?
**A.** 20 µM

**Q.** What about the “percentage of control at effective dose” value [5] of the same molecule?
**A.** 17%

**Q.** What about the “value at effective dose” value [5] of the same molecule?
**A.** 7.3 ± 1.2

**Q.** What about the IC50 [6] of the same molecule?
**A.** 10 µM

**Q.** And the effective dose [6]?
**A.** 40 µM

**Q.** What about the “percentage of control at IC50 dose” value [6] of the same molecule?
**A.** 54%

**Q.** And the “percentage of control at effective dose” value [6]?
**A.** 21%

**Q.** And the IC50 [7]?
**A.** 10 µM

**Q.** What about the “percentage of control at IC50 dose” value [7] of the same molecule?
**A.** 51%

**Q.** What about the effective dose [7] of the same molecule?
**A.** 40 µM

**Q.** What about the “percentage of control at effective dose” value [7] of the same molecule?
**A.** 38%

**Q.** What about the “value at effective dose” value [7] of the same molecule?
**A.** 21.3 ± 1.5

**Q.** What about the IC50 [8] of the same molecule?
**A.** 10 µM

**Q.** And the effective dose [8]?
**A.** 20 µM

**Q.** And the “percentage of control at IC50 dose” value [8]?
**A.** 45%

**Q.** And the “percentage of control at effective dose” value [8]?
**A.** 36%

**Q.** And the “value at effective dose” value [8]?
**A.** 11.7 ± 1.5

**Q.** What about the IC50 [9] of the same molecule?
**A.** 20 µM

**Q.** What about the “percentage of control at IC50 dose” value [9] of the same molecule?
**A.** 32%

**Q.** What about the effective dose [9] of the same molecule?
**A.** 40 µM

**Q.** And the “percentage of control at effective dose” value [9]?
**A.** 29%

**Q.** And the “value at effective dose” value [9]?
**A.** 24.0 ± 2.0

**Q.** And the IC50 [10]?
**A.** 40 µM

**Q.** What about the “percentage of control at IC50 dose” value [10] of the same molecule?
**A.** 45%

**Q.** And the effective dose [10]?
**A.** 40 µM

**Q.** What about the “percentage of control at effective dose” value [10] of the same molecule?
**A.** 26%

**Q.** What about the “value at effective dose” value [10] of the same molecule?
**A.** 11.7 ± 0.6

**Q.** And the IC50 [11]?
**A.** 10 µM

**Q.** And the effective dose [11]?
**A.** 20 µM

**Q.** What about the “percentage of control at IC50 dose” value [11] of the same molecule?
**A.** 39%

**Q.** And the “percentage of control at effective dose” value [11]?
**A.** 27%

**Q.** What about the “value at effective dose” value [11] of the same molecule?
**A.** 5.7 ± 0.6

**Q.** Which plasma tocol level ([12]; 0 Hr., single dose 750 mg δ-tocotrienol) does the source give for `Cc1c(C)c2c(c(C)c1O)CC[C@@](C)(CCC[C@H](C)CCC[C@H](C)CCCC(C)C)O2` [α-Tocopherol] here?
**A.** 1644 ± 59 ng/mL

**Q.** And the plasma tocol level ([12]; 0 Hr., single dose 1000 mg δ-tocotrienol)?
**A.** 1817 ± 80 ng/mL

**Q.** What about the Tmax ([12]; 750 mg and 1000 mg doses of δ-tocotrienol) of the same molecule?
**A.** 6 h

**Q.** What about the plasma tocol level ([12]; 1 hr., single dose 750 mg δ-tocotrienol) of the same molecule?
**A.** 2080 ± 68 ng/mL

**Q.** What about the plasma tocol level ([12]; 1 hr., single dose 1000 mg δ-tocotrienol) of the same molecule?
**A.** 2025 ± 66 ng/mL

**Q.** What about the plasma tocol level ([12]; 2 hr., single dose 750 mg δ-tocotrienol) of the same molecule?
**A.** 2002 ± 91 ng/mL

**Q.** And the plasma tocol level ([12]; 2 hr., single dose 1000 mg δ-tocotrienol)?
**A.** 2115 ± 92 ng/mL

**Q.** And the plasma tocol level ([12]; 4 hr., single dose 750 mg δ-tocotrienol)?
**A.** 2231 ± 35 ng/mL

**Q.** What about the plasma tocol level ([12]; 4 hr., single dose 1000 mg δ-tocotrienol) of the same molecule?
**A.** 2228 ± 22 ng/mL

**Q.** And the plasma tocol level ([12]; 6 hr., single dose 750 mg δ-tocotrienol)?
**A.** 2754 ± 84 ng/mL

**Q.** And the plasma tocol level ([12]; 6 hr., single dose 1000 mg δ-tocotrienol)?
**A.** 2915 ± 35 ng/mL

**Q.** And the plasma tocol level ([12]; 8 hr., single dose 750 mg δ-tocotrienol)?
**A.** 2406 ± 51 ng/mL

**Q.** And the plasma tocol level ([12]; 8 hr., single dose 1000 mg δ-tocotrienol)?
**A.** 2139 ± 61 ng/mL

**Q.** And the “Total tocols (sum of 0-8 h)” value ([12]; single dose 1000 mg δ-tocotrienol)?
**A.** 13239 ng/mL

**Q.** What about the “time of appearance in the plasma” value ([13]; after δ-tocotrienol administration to well-fed subjects) of the same molecule?
**A.** > 2 h

**Q.** And the “Elimination of Half-life time (t1/2)” value [13, 15]?
**A.** 4.99 ± 069^a h

**Q.** And the “Elimination rate constant (ke)” value [13, 15]?
**A.** 0.237 ± 0.217^a h-1

**Q.** And the “Plasma Peak Concentration (Cmax)” value [13, 15]?
**A.** 1822.00 ± 48.24^a ng/mL

**Q.** And the “Time to achieve plasma peak (Tmax)” value [13, 15]?
**A.** 6.00 h

**Q.** And the “Elimination of Half-life time (t1/2)” value [13, 16]?
**A.** 4.91 ± 0.84^a h

**Q.** What about the “Elimination rate constant (ke)” value [13, 16] of the same molecule?
**A.** 0.084 ± 0.008^a,b h-1

**Q.** What about the “Plasma Peak Concentration (Cmax)” value [13, 16] of the same molecule?
**A.** 1931.00 ± 92.54^b ng/mL

**Q.** What about the “Time to achieve plasma peak (Tmax)” value [13, 16] of the same molecule?
**A.** 6.00 h

**Q.** And the “Elimination of Half-life time (t1/2)” value [13, 17]?
**A.** 3.58 ± 0.67^a h

**Q.** What about the “Elimination rate constant (ke)” value [13, 17] of the same molecule?
**A.** 0.081 ± 0.006^b h-1

**Q.** What about the “Plasma Peak Concentration (Cmax)” value [13, 17] of the same molecule?
**A.** 2188 ± 147.61^c ng/mL

**Q.** What about the “Time to achieve plasma peak (Tmax)” value [13, 17] of the same molecule?
**A.** 5.46 ± 0.93 h

**Q.** And the “α-TTP mediated secretion from the liver into the circulatory system (affinity with α-TTP)” value [14]?
**A.** 100%
